Test results as given in paper PMC5039751, “Profiling of core fucosylated N-glycans using a novel bacterial lectin that specifically recognizes α1,6 fucosylated chitobiose” (Scientific Reports, 2016).

Tests used:
SL2-1 [1] = molecular target: T1, SL2-1 (Streptomyces rapamycinicus, UniProt A0ABR6LWE4); assay: isothermal titration calorimetry; assay type: binding; conditions: 20 mM sodium phosphate pH 7.4, 25 °C
T1 construct: gene BJY27_006859; monomer with three ~40-residue repeats
T1 sequence (A0ABR6LWE4 31-188): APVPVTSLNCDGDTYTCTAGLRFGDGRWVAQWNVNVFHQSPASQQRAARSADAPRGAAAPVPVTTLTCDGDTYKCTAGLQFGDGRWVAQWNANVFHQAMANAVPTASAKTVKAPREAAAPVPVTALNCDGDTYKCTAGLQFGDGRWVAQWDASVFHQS
Excerpt: isothermal titration calorimetry on SL2-1

SL2-1 [2] = molecular target: T1, SL2-1; assay: lectin capture in Microcon-30 filter, UPLC-HILIC-FLR; assay type: binding; conditions: labelled compound (2-AB); mixture of four glycans, 4 pmol each, 20 μg SL2-1, 10 mM Tris-HCl pH 8.0, room temperature; proteinase K elution

SMILES: CC(=O)N[C@H]1[C@H](O[C@H]2[C@H](O)[C@@H](NC(C)=O)C(O)O[C@@H]2CO[C@@H]2O[C@@H](C)[C@@H](O)[C@@H](O)[C@@H]2O)O[C@H](CO)[C@@H](O[C@@H]2O[C@H](CO[C@H]3O[C@H](CO)[C@@H](O)[C@H](O)[C@@H]3O[C@@H]3O[C@H](CO)[C@@H](O[C@@H]4O[C@H](CO[C@]5(C(=O)O)C[C@H](O)[C@@H](NC(C)=O)[C@H]([C@H](O)[C@H](O)CO)O5)[C@H](O)[C@H](O)[C@H]4O)[C@H](O)[C@H]3NC(C)=O)[C@@H](O)[C@H](O[C@H]3O[C@H](CO)[C@@H](O)[C@H](O)[C@@H]3O[C@@H]3O[C@H](CO)[C@@H](O[C@@H]4O[C@H](CO)[C@H](O)[C@H](O)[C@H]4O)[C@H](O)[C@H]3NC(C)=O)[C@@H]2O)[C@@H]1O (stereo partly shown) [A1F, monosialo-fucosylated biantennary N-glycan]
- Kd (SL2-1 [1]; n = 1.85): 1060 nM

SMILES: CC(=O)N[C@H]1[C@H](O[C@@H]([C@H](O)[C@H](CNc2ccccc2C(N)=O)NC(C)=O)[C@H](O)CO[C@@H]2O[C@@H](C)[C@@H](O)[C@@H](O)[C@@H]2O)O[C@H](CO)[C@@H](O[C@@H]2O[C@H](CO[C@H]3O[C@H](CO)[C@@H](O)[C@H](O)[C@@H]3O)[C@@H](O)[C@H](O[C@H]3O[C@H](CO)[C@@H](O)[C@H](O)[C@@H]3O)[C@@H]2O)[C@@H]1O [M3N2F, 2-aminobenzamide (2-AB)-labeled trimannosyl core N-glycan (paucimannose) with core α1-6 fucose]
- % of total loaded recovered from lectin-bound fraction (SL2-1 [2]): 91%

SMILES: CC(=O)N[C@H]1[C@H](O[C@H]2[C@H](O)[C@@H](NC(C)=O)C(O)O[C@@H]2CO[C@@H]2O[C@@H](C)[C@@H](O)[C@@H](O)[C@@H]2O)O[C@H](CO)[C@@H](O)[C@@H]1O (stereo partly drawn) [N2F, α1-6 fucosylated chitobiose]
- Kd (SL2-1 [1]; n = 2.01): 1590 nM

SMILES: CC(=O)N[C@H]1[C@H](O[C@@H]([C@H](O)[C@H](CNc2ccccc2C(N)=O)NC(C)=O)[C@H](O)CO[C@@H]2O[C@@H](C)[C@@H](O)[C@@H](O)[C@@H]2O)O[C@H](CO)[C@@H](O[C@@H]2O[C@H](CO[C@H]3O[C@H](CO)[C@@H](O)[C@H](O)[C@@H]3O[C@@H]3O[C@H](CO)[C@@H](O[C@@H]4O[C@H](CO)[C@H](O)[C@H](O)[C@H]4O)[C@H](O)[C@H]3NC(C)=O)[C@@H](O)[C@H](O[C@H]3O[C@H](CO)[C@@H](O)[C@H](O)[C@@H]3O[C@@H]3O[C@H](CO)[C@@H](O[C@@H]4O[C@H](CO)[C@H](O)[C@H](O)[C@H]4O)[C@H](O)[C@H]3NC(C)=O)[C@@H]2O)[C@@H]1O [NA2F, 2-aminobenzamide (2-AB)-labeled asialo-, galactosylated biantennary N-glycan with core α1-6 fucose]
- % of total loaded recovered from lectin-bound fraction (SL2-1 [2]): 95%
